Here are results for four compounds from patent US10596168B2, “Antagonists of the thyroid-stimulating hormone receptor (TSHR)” (Forschungsverbund Berlin e.V., priority 2016, dated 2020).

Common to all, as to format: cell-based
Data set [1] has as its target T1, TSHR (Homo sapiens, UniProt P16473).
T1 construct: expressed in transfected cells
The data set is described as follows: cAMP accumulation radioimmunoassay (RIA), inhibition of TSH-induced cAMP production in HEK-293 cells stably expressing TSHR. To be noted: for Antagonistic effect (cAMP inhibition) on TSHR: 50 μM together with the respective agonist, RIA, HEK-293; for antagonistic activity (% inhibition): inhibiting cAMP stimulation by TSH, radioimmunoassay; for IC50: secondary screen (RIA), dose-dependent inhibition of cAMP production caused by TSH (EC80 value), HEK-293-TSHR; for Mode of antagonism vs. TSH (Schild analysis): bTSH dose response with increasing antagonist concentrations, wt TSHR. Details: antagonistic activity (% inhibition): concentration or dose not given beside the values. The procedure: (§1) HEK-293 cells stably expressing TSHR, FSHR, LHGCR or CRF1R were cultured for 48 h and stimulated for 1 h at 37° C. with stimulation buffer (DMEM supplemented with 10 mM HEPES, 0.5% BSA, 0.25 mM 3-isobutyl-1-methylxanthine) containing the ligands as indicated. After stimulation medium was aspirated and reactions were stopped by lysis of the cells with 0.1% trifluoroacetic acid, 0.005% Triton X-100 for 30 min at 4° C. Supernatants were collected and heated at 95° C. for 10 min, dried in a rotation vacuum concentrator (Alpha-RCV, Christ) and finally stored at −20° C. until use. After reconstitution and acetylation of the samples (Jäschke et al. 2006), the cAMP content was determined using cAMP-^125I-tyrosyl methyl ester (10,000 cpm, IBL) and polyclonal rabbit anti cAMP antibodies. The radioactivity of the precipitate was determined in a γ-counter.
For the Secondary Screening cAMP accumulation was measured by radioimmunoassay (RIA) in HEK-293-TSHR cells as described before.
For the secondary screening we used a very sensitive in vitro technique, the radioimmunoassay. This assay was established and performed in HEK-293 cell line stably expressing TSHR.
Therefore RIA was used to measure the cAMP accumulation upon stimulation with TSH (EC80 value) and confirmed the desired effect for S4 and S9 with a clear decrease of cAMP production.
On the technique in general: Cyclic AMP is a second messenger, typically raised through Gs and lowered through Gi signalling.

For another data set, the target named is T2, FSHR (Homo sapiens, UniProt P23945).
T2 construct: expressed in transfected cells
T2 sequence (P23945 18-695): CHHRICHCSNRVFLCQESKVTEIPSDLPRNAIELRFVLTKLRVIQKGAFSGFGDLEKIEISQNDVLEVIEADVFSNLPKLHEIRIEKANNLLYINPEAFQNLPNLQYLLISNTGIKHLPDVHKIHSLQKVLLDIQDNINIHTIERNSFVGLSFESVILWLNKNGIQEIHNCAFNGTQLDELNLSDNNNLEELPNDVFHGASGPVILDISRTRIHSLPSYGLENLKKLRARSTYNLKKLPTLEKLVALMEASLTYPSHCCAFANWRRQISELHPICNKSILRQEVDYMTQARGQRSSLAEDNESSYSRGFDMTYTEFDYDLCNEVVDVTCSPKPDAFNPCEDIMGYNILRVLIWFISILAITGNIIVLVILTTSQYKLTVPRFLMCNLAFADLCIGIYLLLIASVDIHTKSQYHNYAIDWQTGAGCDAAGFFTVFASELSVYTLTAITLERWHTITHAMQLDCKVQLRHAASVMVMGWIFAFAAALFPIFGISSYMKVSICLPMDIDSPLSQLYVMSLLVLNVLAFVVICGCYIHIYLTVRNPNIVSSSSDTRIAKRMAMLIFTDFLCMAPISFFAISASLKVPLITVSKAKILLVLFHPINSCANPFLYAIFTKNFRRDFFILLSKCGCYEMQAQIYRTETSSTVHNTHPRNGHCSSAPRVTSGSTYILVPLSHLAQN
Description: Selectivity test: cAMP RIA in HEK-293 cells stably expressing FSHR. To be noted: 50 μM together with the respective agonist. The protocol:
as §1
(§2) The antagonistic activity of compounds S4, S9, S37 and as reference compound, the micromolar inverse agonist 2-7 (Neumann et al. 2010) were tested on homologous members of the glycoprotein hormone receptor family, FSHR and LHCGR. […] All receptors were stably expressed in HEK-293 cells and the impact of each substance was measured upon administration of 50 μM together with the respective agonist. cAMP accumulation was quantified by RIA. The antagonistic potential of each compound was calculated. […]

The target of data set [2] is T1, TSHR. The data set is described as follows: Primary screening, Enzyme Fragment Complementation (EFC) cAMP assay in CHO-K1-TSHR cells. To be noted: 50 μM; after hit validation and exclusion of false positives. The procedure:
Primary screening was performed using an Enzyme Fragment Complementation (EFC) technology. CHO-K1-TSHR cells (15000/well in a 384 well plate) were treated with 50 μM of each of the 16544 compounds of the ChemBioNet compound library of the Leibniz-Institut fuer Molekulare Pharmakologie (FMP), Berlin, Germany. EFC technology uses two fragments of one enzyme: an enzyme acceptor (EA) and an enzyme donor (ED). ED is labeled to (synthetic) cAMP. […] In this assay, free cAMP from cell lysates and ED-labeled cAMP compete for antibody binding sites. Unbound ED-cAMP is free to complement EA to form active enzyme, which subsequently produces a luminescent signal. Thus the luminescence signal increases with rising level of intracellular cAMP. All assay components were used after the manufacturer's protocol.
Hits were validated by dose-response curves using the EFC assay.
False-positive hits could be excluded by stimulating CHO-K1 cells without TSHR with Forskolin (23.4 μM) followed by addition of the compound of interest. Forskolin activates the Adenylyl-cyclase directly. Inhibition of this effect excludes the interaction between TSHR and compound.
For the implementation of the primary screen the Enzymes Fragment Complementation Technology (EFC) was selected.

Another data set concerns the target T3, wt TSHR (Homo sapiens, UniProt P16473).
T3 construct: expressed in transfected cells
Description: cAMP stimulation by agonist compound C2 at wildtype TSHR with increasing antagonist concentrations. The note with it: C2 dose response with increasing antagonist concentrations. The protocol:
as §1
Moreover, a Schild plot analysis provided first interesting hints that S37 might compete with the binding site of TSH, since increasing concentrations of added S37 led to a right shift of the TSH dose response curve (FIG. 5A) and to a linear Schild plot (FIG. 5B). S37 seems not to compete with the transmembrane binding site of the previous reported agonist compound 2 (Neumann et al. 2009), since increasing concentrations of added S37 led to diminished maximal values of the dose response curve for compound 2 by unchanged EC50 value (FIG. 5C).

The target in another data set is T4, Δ1-408-TSHR (Homo sapiens, UniProt P16473).
T4 construct: This short construct (Δ1-408-TSHR.GFP) only consists of the transmembrane region; expressed in transfected cells
Description: cAMP radioimmunoassay at ectodomain-truncated TSHR construct stimulated by compound 2. To be noted: Δ1-408-TSHR lacking the ectodomain. An excerpt:
Ectodomain-truncated TSHR construct (Δ1-408-TSHR.GFP) was generated using quick change site-directed mutagenesis and restriction digestion to excise the desired fragment of the TSHR sequence. The DNA sequence encoding the truncated TSHR mutant was inserted into the GFP-N1 vector. The construct was fused C-terminally with GFP and N-terminally with a FLAG tag. The FLAG tag was inserted by overlap-extension PCR. A HEK-293 cell line stably expressing this construct was generated. Shortly, cells were transfected with Polyethylenimine and plasmid DNA in a 2:1 ratio in serum free medium (DMEM). Cells were selected with medium containing 400 μg/ml G418 for several weeks and then a polyclonal population was selected for GFP fluorescence in a cell sorting device (BD FACSAria II flow cytometer). Cell surface expression was confirmed by confocal laser-scanning microscopy (GFP fluorescence) and flow cytometry using anti-FLAG M2 (Sigma).
HEK-293 cells stably expressing TSHR, FSHR, LHGCR or CRF1R were cultured for 48 h and stimulated for 1 h at 37° C. with stimulation buffer (DMEM supplemented with 10 mM HEPES, 0.5% BSA, 0.25 mM 3-isobutyl-1-methylxanthine) containing the ligands as indicated. […] After reconstitution and acetylation of the samples (Jäschke et al. 2006), the cAMP content was determined using cAMP-^125I-tyrosyl methyl ester (10,000 cpm, IBL) and polyclonal rabbit anti cAMP antibodies. […]

Data set [3] relates to Hek293 cell line stably expressing TSHR. The data set is described as follows: Toxicity test, alamar blue cell vitality. To be noted: 10 μM-100 μM. The protocol:
The vitality of the cells was measured by the alamar blue test using Hek293 cell line stably expressing TSHR. Untreated cells and DMSO-treated cells (0.2% DMSO) were used as control.
Therefore, we conclude that substance S37 is not toxic for the concentration range evaluated by this assay.
(In general: Alamar Blue is a resazurin reagent that responds to reducing activity.)

The target of another data set is T5, LHCGR (Homo sapiens, UniProt P22888).
T5 construct: expressed in transfected cells
The data set is described as follows: Selectivity test: cAMP RIA in HEK-293 cells stably expressing LHCGR. The note with it: 50 μM together with the respective agonist. The protocol:
as §1, §2

Where “and” joins values, the source holds several entries; their conditions need not be identical. Equal values may be shown once.

T1 sequence (P16473 21-764): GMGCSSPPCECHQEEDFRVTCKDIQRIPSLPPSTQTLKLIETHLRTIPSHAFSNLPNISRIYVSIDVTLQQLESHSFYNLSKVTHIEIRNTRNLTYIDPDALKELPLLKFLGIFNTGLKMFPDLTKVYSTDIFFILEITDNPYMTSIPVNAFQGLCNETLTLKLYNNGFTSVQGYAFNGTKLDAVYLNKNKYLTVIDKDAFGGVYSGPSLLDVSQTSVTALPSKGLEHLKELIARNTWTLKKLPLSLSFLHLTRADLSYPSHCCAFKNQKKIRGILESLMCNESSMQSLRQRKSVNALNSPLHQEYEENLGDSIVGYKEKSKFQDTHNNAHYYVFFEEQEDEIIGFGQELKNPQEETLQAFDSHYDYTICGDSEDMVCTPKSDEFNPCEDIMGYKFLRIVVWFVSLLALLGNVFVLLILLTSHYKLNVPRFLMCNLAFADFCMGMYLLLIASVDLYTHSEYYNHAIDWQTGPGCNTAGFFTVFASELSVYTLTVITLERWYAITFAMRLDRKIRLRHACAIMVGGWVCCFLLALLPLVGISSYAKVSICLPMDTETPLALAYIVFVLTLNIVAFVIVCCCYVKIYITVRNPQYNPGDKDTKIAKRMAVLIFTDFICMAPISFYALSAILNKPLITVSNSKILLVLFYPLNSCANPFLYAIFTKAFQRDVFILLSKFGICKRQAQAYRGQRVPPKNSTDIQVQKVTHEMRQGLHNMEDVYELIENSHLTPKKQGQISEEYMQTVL
T3 sequence (P16473 21-764): as above
T5 sequence (P22888 27-699, species assumed): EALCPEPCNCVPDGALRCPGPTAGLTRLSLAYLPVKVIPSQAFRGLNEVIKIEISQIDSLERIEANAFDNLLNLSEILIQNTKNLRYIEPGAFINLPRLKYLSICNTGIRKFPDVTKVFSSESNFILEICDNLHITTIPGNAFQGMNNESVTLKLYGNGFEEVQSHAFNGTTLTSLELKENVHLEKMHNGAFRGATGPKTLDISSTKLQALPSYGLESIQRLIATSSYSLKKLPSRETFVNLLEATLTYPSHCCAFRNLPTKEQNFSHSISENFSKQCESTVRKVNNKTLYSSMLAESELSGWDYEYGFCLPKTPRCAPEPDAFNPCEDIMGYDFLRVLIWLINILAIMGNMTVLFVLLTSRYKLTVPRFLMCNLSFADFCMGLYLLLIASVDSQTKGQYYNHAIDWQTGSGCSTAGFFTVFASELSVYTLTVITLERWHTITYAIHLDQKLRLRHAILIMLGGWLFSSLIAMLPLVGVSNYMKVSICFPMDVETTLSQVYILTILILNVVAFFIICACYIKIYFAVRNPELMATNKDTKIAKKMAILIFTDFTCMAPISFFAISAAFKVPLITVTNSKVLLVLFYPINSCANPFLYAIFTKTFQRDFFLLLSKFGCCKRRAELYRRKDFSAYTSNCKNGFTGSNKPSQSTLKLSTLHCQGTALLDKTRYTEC
T4 sequence (P16473 409-764, stated change not applied): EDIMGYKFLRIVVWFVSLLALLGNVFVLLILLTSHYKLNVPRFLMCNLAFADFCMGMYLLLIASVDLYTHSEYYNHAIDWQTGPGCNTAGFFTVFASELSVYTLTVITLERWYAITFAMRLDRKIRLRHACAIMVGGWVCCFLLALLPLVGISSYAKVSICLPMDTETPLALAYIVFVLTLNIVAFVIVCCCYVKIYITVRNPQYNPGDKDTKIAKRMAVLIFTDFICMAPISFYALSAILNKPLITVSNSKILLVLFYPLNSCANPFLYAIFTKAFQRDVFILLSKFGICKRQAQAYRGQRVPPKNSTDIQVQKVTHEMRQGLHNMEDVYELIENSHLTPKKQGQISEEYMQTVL

On to `Cc1ccc(N2C(=O)C3C4CC(C3C2=O)C2C(c3ccccc3)c3sc(=O)[nH]c3SC42)cc1` (stereo not shown) [Compound S4], for which, at TSHR [1], the “Antagonistic effect (cAMP inhibition) on TSHR” value was “inhibits TSHR and FSHR activation”; the “antagonistic activity (% inhibition)” value is given as 63%; the IC50 is 48.9 µM and 49 µM. Moreover, the “Antagonistic effect (cAMP inhibition) on FSHR” value at FSHR is “inhibits TSHR and FSHR activation”. Moreover, the “Primary screen hit: cAMP production induced by thyrotropin” value at TSHR [2] was “potentially abolishing cAMP production”.
In the case of `O=C1[C@@H]2[C@H]3C[C@H]([C@@H]4Sc5[nH]c(=O)sc5[C@@H](c5ccccc5)[C@H]34)[C@@H]2C(=O)N1c1ccccc1` (racemic) [Compound S37, (4aS,5S,5aR,8aR,9R,9aS,10R)-7,10-diphenyl-3,4a,5,5a,8a,9,9a,10-octahydro-5,9-methanothiazolo[5′,4′:5,6]thiopyrano[2,3-f]isoindole-2,6,8(7H)-trione], at TSHR [1], the “Antagonistic effect (cAMP inhibition) on TSHR” value is recorded as “inhibits TSHR comparable to the reference compound 2-7(NIH)”, the “Mode of antagonism vs. TSH (Schild analysis)” value was “competitive antagonism”, the “antagonistic activity (% inhibition)” value is 70% and the IC50 worked out at 28 µM. Also, the “TSHR selectivity versus homologous receptors LHCGR and FSHR” value on TSHR [1] (from cAMP inhibition at TSHR, FSHR, LHCGR at 50 μM) was “highly TSHR-selective”. On wt TSHR, the “Mode of antagonism vs. C2” value is reported as “non-competitive antagonism”. At Δ1-408-TSHR, the “Mode of antagonism vs. C2 at truncated construct” value is on record as “non-competitive antagonism”. In data set [3], the “Toxicity (cell vitality, alamar blue)” value is reported as “not toxic”.
In the case of `O=C1C2C3C=CC(C3)C2C(=O)N1c1ccc(N2CCN(c3cccc(C(F)(F)F)c3)CC2)c([N+](=O)[O-])c1` (stereo not shown) [Compound S9], at TSHR [1], the “Antagonistic effect (cAMP inhibition) on TSHR” value is listed as “unspecifically inhibits all three receptors”; the “Mode of antagonism vs. TSH (Schild analysis)” value is “non-competitive antagonism”; the “antagonistic activity (% inhibition)” value is on record as 75%; the concentration for half-maximal inhibition (IC50) is 18.7 µM and 18.6 µM. The “Antagonistic effect (cAMP inhibition) on FSHR” value at FSHR was “unspecifically inhibits all three receptors”. Further, the “Antagonistic effect (cAMP inhibition) on LHCGR” value on LHCGR is reported as “unspecifically inhibits all three receptors”. Besides, the “Mode of antagonism vs. C2” value on wt TSHR is given as “non-competitive antagonism”. Besides, the “Primary screen hit: cAMP production induced by thyrotropin” value on TSHR [2] is given as “potentially abolishing cAMP production”.
For the compound `Cc1ccc(N2C(=O)C3C4CC(C3C2=O)C2C(c3ccc(N(C)C)cc3)c3sc(=O)[nH]c3SC42)cc1` (stereo not shown) [Compound S18], at TSHR [1], the “antagonistic activity (% inhibition)” value is 30%.

As a reminder, the IC50 is the concentration needed to halve the response being measured.
